Values after ≈ are worked out from the molar mass of the structure shown. Like-named read-outs stand apart in the source and are kept apart here. Residues, ends and D or L forms follow the SMILES beside them.
What was measured:
C. cucumerinum = assay type: cell-based, Cladosporium cucumerinum
Source text: (§1) Conidia of Fusarium spp., A. alternata, B. sorokiniana, and C. cucumerinum were collected from the surface of their colonies on potato dextrose agar by flooding the mycelium with sterilized distilled water (SDW) and gently rubbing with a glass rod, while P. nodorum spores were obtained by washing off wheat kernels infested with the pathogen. The spores (conidia) were suspended in SDW (control) or in SDW-dissolved WAMPs, WAMP-2-derived peptides, the fungicide or their mixtures to a final concentration of 10^4–10^5 spores/mL and incubated at 20–22 °C for 5–6 or 12–16 h depending on the pathogen species. The number of germinated and non-germinated spores (500 ones of each pathogen per treatment) was counted in wells of a polystyrene culture plate using an inverted microscope followed by calculation of the percent of inhibition of the spore germination as compared to control.
(§2) For each pathogen, tests on evaluation of antifungal or sensitizing activity of WAMP homologues or their peptides (three replications per treatment, 500 counted conidia in each one) included at least two independent experimental series. Mean values, standard deviations (SD), standard errors (SE), and the significance of differences (p ≤ 0.05) of the means between treatments and controls (t-test for the independent variables) were determined using […] v. 6.1 software (StatSoft Inc., Tulsa, OK, USA).

P. nodorum [1] = assay type: cell-based, Parastagonospora nodorum
Source text: as §1, §2

B. sorokiniana [2] = assay type: cell-based, Bipolaris sorokiniana
Source text: as §1, §2

F. culmorum [3] = experiment: Inhibition of spore (conidia) germination, microplate assay; assay type: cell-based, Fusarium culmorum; settings: for IC50: WAMP-2-derived synthetic peptides, spore germination; for Inhibition of conidium germination: peptide alone, 400 μg/mL, mean of three experiments
Source text: as §1, §2

F. oxysporum = assay type: cell-based, Fusarium oxysporum
Source text: as §1, §2

A. alternata [4] = assay type: cell-based, Alternaria alternata
Source text: as §1, §2

F. avenaceum [5] = experiment: Inhibition of spore (conidia) germination, microplate assay; assay type: cell-based, Fusarium avenaceum; settings: for IC50: WAMP-2-derived synthetic peptides, spore germination
Source text: as §1, §2

F. avenaceum [6] = experiment: Checkerboard sensitization assay, WAMP-2 fragment with Folicur EC 250 (tebuconazole), spore germination; assay type: cell-based, Fusarium avenaceum; settings: effective tebuconazole–WAMP-2 fragment composition; FFCI ≤ 0.5 = synergy; MFC by probit analysis
Source text: as §1, with “control. […]” for “control.”
(§3) The fragments were tested at concentrations ranging between 5, 10 and 50 μg/mL against B. sorokiniana, A. alternata or other cereal-pathogenic fungi (F. culmorum, F. avenacenum and P. nodorum), respectively, to concentrations that produced the inhibitory effect of ≤50%. The sub-fungicidal concentrations of tebuconazole were preliminarily determined for each pathogen through serial double or fivefold dilutions. […]

P. nodorum [7] = experiment: as above; assay type: cell-based, Parastagonospora nodorum; settings: effective tebuconazole–WAMP-2 fragment composition; FFCI ≤ 0.5 = synergy; MFC by probit analysis
Source text: as §1, with “control. […]” for “control.”
as §3

A. alternata [8] = system: A. alternata
Source text: as §1, with “control. […]” for “control.”
as §3

F. culmorum [9] = experiment: Checkerboard sensitization assay, WAMP-2 fragment with Folicur EC 250 (tebuconazole), spore germination; assay type: cell-based, Fusarium culmorum; settings: effective tebuconazole–WAMP-2 fragment composition; FFCI ≤ 0.5 = synergy; MFC by probit analysis
Source text: as §1, with “control. […]” for “control.”
as §3

B. sorokiniana [10] = experiment: as above; assay type: cell-based, Bipolaris sorokiniana; settings: effective tebuconazole–WAMP-2 fragment composition; FFCI ≤ 0.5 = synergy; MFC by probit analysis
Source text: as §1, with “control. […]” for “control.”
as §3

[11] = peptide alone, 400 μg/mL, mean of three experiments
[12] = WAMP-2-derived synthetic peptides, spore germination

SMILES	IC50 (C. cucumerinum)	IC50 (P. nodorum [1])	IC50 (B. sorokiniana [2])	IC50 (F. culmorum [3])	IC50 (F. oxysporum)	IC50 (A. alternata [4])	IC50 (F. avenaceum [5])	Inhibition of conidium germination (F. culmorum [3])	further results
C[C@H](N)C(=O)N[C@@H](CCC(N)=O)C(=O)N[C@@H](CCCNC(=N)N)C(=O)N[C@@H](CS)C(=O)NCC(=O)N[C@@H](CC(=O)O)C(=O)N[C@@H](CCC(N)=O)C(=O)N[C@@H](C)C(=O)N[C@@H](CCCNC(=N)N)C(=O)NCC(=O)N[C@@H](C)C(=O)N[C@@H](CCCCN)C(=O)N[C@@H](CS)C(=O)O [WAMP-N] (H-AQRCGDQARGAKC-OH)	280.2 ± 29.7 µg/mL (≈ 205 µM)	220.2 ± 13.5 µg/mL (≈ 161 µM)	72.9 ± 12.4 µg/mL (≈ 53.5 µM)	332.4 ± 26.1 µg/mL (≈ 244 µM)	238.0 ± 32.4 µg/mL (≈ 175 µM)	102.6 ± 19.6 µg/mL (≈ 75.2 µM)	>700 µg/mL		Inhibition of conidium germination (F. avenaceum [5]; [11]): 40.4%
CC(C)C[C@H](N)C(=O)N[C@@H](CS)C(=O)N[C@@H](CS)C(=O)NCC(=O)N[C@@H](CCCCN)C(=O)N[C@@H](Cc1ccc(O)cc1)C(=O)NCC(=O)N[C@@H](Cc1ccccc1)C(=O)N[C@@H](CS)C(=O)NCC(=O)N[C@@H](CO)C(=O)NCC(=O)O [WAMP-G1] (H-LCCGKYGFCGSG-OH)	>700 µg/mL	>700 µg/mL	273.1 ± 45.7 µg/mL (≈ 229 µM)	>700 µg/mL	>700 µg/mL	>700 µg/mL			
C[C@H](NC(=O)[C@H](CC(=O)O)NC(=O)CNC(=O)[C@H](CO)NC(=O)CNC(=O)[C@H](CS)NC(=O)[C@H](Cc1ccccc1)NC(=O)CNC(=O)[C@H](Cc1ccc(O)cc1)NC(=O)[C@H](CCCCN)NC(=O)CNC(=O)[C@H](CS)NC(=O)[C@@H](N)CS)C(=O)N[C@@H](Cc1ccc(O)cc1)C(=O)N[C@@H](CS)C(=O)O [WAMP-G2] (H-CCGKYGFCGSGDAYC-OH; N-terminus and C-terminus assumed)				>700 µg/mL			602.8 ± 3.1 µg/mL (≈ 393 µM)	26.2%	IC50 (C. cucumerinum; [12]): 410.2 ± 29.1 µg/mL (≈ 267 µM); IC50 (P. nodorum [1]; [12]): 424.1 ± 12.1 µg/mL (≈ 277 µM); IC50 (B. sorokiniana [2]; [12]): 195.2 ± 36.8 µg/mL (≈ 127 µM); FFCI (Fractional Fungicidal Concentration Index) (F. avenaceum [6]): 0.03; FFCI (Fractional Fungicidal Concentration Index) (P. nodorum [7]): 0.04; IC50 (F. oxysporum; [12]): 391.2 ± 34.2 µg/mL (≈ 255 µM); type of peptide–fungicide interaction (A. alternata [8]; compositions 100 + 0.05 and 100 + 0.1 µg/mL (two of nine)): additive effect; FFCI (Fractional Fungicidal Concentration Index) (A. alternata [8]; effective tebuconazole–WAMP-2 fragment composition, FFCI ≤ 0.5 = synergy, MFC by probit analysis): 0.05; IC50 (A. alternata [4]; [12]): 145.6 ± 29.4 µg/mL (≈ 94.9 µM); Inhibition of conidium germination (A. alternata [4]; [11]): 83.8%; FFCI (Fractional Fungicidal Concentration Index) (F. culmorum [9]): 0.02; FFCI (Fractional Fungicidal Concentration Index) (B. sorokiniana [10]): 0.13
N=C(N)NCCC[C@H](NC(=O)[C@H](CS)NC(=O)CNC(=O)[C@H](CCCNC(=N)N)NC(=O)[C@H](CS)NC(=O)[C@H](CCC(N)=O)NC(=O)[C@H](CO)NC(=O)[C@H](CCC(N)=O)NC(=O)[C@H](CS)NC(=O)[C@H](CO)NC(=O)CNC(=O)[C@H](CCCCN)NC(=O)CN)C(=O)O [WAMP-C] (H-GKGSCQSQCRGCR-OH)	5.3 ± 0.1 µg/mL (≈ 3.87 µM)	329.6 ± 7.9 µg/mL (≈ 241 µM)	429.5 ± 51.5 µg/mL (≈ 314 µM)	>700 µg/mL	>700 µg/mL	550.4 ± 41.3 µg/mL (≈ 402 µM)		23%	

— PMC7662308, “Hevein-Like Antimicrobial Peptides Wamps: Structure–Function Relationship in Antifungal Activity and Sensitization of Plant Pathogenic Fungi to Tebuconazole by WAMP-2-Derived Peptides” (International Journal of Molecular Sciences, 2020)
